# Assay results from patent US8563730B2, “Pyrazole and fused pyrazole glucokinase activators” (Takeda San Diego, Inc., priority 2008, dated 2013).
# Target: T1, GK (glucokinase, residues 12-465) (Homo sapiens, UniProt P35557)
# T1 construct: I.D. No. 1 corresponds to residues 12-465 of glucokinase; made in house; host or cells: DH10b-T1r E. coli
# T1 sequence (P35557 with tags, fused parts or gaps isoform P35557-2): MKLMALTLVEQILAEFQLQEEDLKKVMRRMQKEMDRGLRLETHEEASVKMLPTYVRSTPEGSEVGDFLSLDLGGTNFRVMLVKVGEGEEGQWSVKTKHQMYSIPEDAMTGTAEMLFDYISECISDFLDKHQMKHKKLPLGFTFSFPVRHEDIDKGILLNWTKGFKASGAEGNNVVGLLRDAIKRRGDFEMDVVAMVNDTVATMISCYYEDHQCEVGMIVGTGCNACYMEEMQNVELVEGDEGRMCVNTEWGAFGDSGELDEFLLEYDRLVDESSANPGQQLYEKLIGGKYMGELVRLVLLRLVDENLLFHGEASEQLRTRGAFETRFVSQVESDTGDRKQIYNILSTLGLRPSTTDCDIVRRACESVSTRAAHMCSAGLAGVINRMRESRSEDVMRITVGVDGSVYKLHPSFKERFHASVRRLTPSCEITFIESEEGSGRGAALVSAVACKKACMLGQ
# Assay: enzymatic glucokinase activity assay (ATP consumption, KinaseGlo luminescence)
# Format: biochemical
# Conditions: 5 μM ATP, 5 mM Glucose, reported as bins; for EC50: Kact = concentration that displays 50% of the maximal increase in GK activity, 60 min, room temperature, read-out: pKact; for Emax: calculated maximal gain in GK enzyme activity at a saturating concentration of the compound, read-out: % ACTmax
# Description: The activity of compounds as glucokinase activators may be assayed in vitro, in vivo or in a cell line. Provided below is an enzymatic glucokinase activity assay.
# Purified glucokinase may be obtained as follows. […] SEQ.
# The expression of recombinant glucokinase protein may be carried out by transformation and growth of DH10b-T1r E. coli cells incorporating the (pFLAG-CTC) plasmid in LB media. Protein expression can be induced in this system by the addition of IPTG to the culture medium.
# Recombinant protein may be isolated from cellular extracts by passage over Sepharose Q Fast Flow resin (Pharmacia). This partially purified GK extract may then be further purified by a second passage over Poros HQ10 (Applied Biosystems). The purity of GK may be determined on denaturing SDS-PAGE gel. Purified GK may then be concentrated to a final concentration of 20.0 mg/ml. After flash freezing in liquid nitrogen, the proteins can be stored at −78° C. in a buffer containing 25 mM TRIS-HCl pH 7.6, 50 mM NaCl, and 0.5 mM TCEP.
# The activation properties of compounds for GK may be determined using a black 384-well-plate format under the following reaction conditions: 25 mM Hepes pH 7.2, 25 mM NaCl, 10 mM MgCl2, 0.01% Brij35, 1 mM DTT, 5 μM ATP, 5 mM Glucose 2% DMSO. The amount of ATP consumed may be determined quantitatively by addition of equal volume of luciferase reagent (luciferase+beetle luciferin—KinaseGlo Luminescent Kinase Assay kit from Promega). The luminescence intensity may be measured by using the Analyst HT from LJL Biosystems.
# The reaction mixture may then be incubated at room temperature for 60 min, and quenched and developed by addition of 10 μL of luciferase reagent. Luminescence intensities of the resulting reaction mixtures may be measured after a 10 min incubation at room temperature. The luminescence intensity may be measured by using the Analyst HT from LJL Biosystems.
# pKact and % ACTmax values may be calculated by non-linear curve fitting of the compound concentrations and luminescence intensities to a standard inhibition/activation equation.
SMILES,EC50,Emax
"O=C(Nc1ncc(Cl)s1)[C@H](CC1CCOCC1)n1ncc2cc(S(=O)(=O)C3CC3)ccc21 [Compound 48, (S)-N-(5-chlorothiazol-2-yl)-2-(5-(cyclopropylsulfonyl)-1H-indazol-1-yl)-3-(tetrahydro-2H-pyran-4-yl)propanamide]",0.398 to 1.26 µM,≥ 111%
"CC(C)(C)S(=O)(=O)c1cnn(C(CC2CCOCC2)C(=O)Nc2ncc(F)s2)c1 (stereo not drawn) [Compound 49, 2-(4-(tert-butylsulfonyl)-1H-pyrazol-1-yl)-N-(5-fluorothiazol-2-yl)-3-(tetrahydro-2H-pyran-4-yl)propanamide]",3.98 to 12.6 µM,90 to 100%
"O=C1CCC(CC(C(=O)Nc2ncc(F)s2)n2cc(S(=O)(=O)C3CC3)cn2)C1 (stereo not drawn) [Compound 50, 2-(4-(cyclopropylsulfonyl)-1H-pyrazol-1-yl)-N-(5-fluorothiazol-2-yl)-3-(3-oxocyclopentyl)propanamide]",≥ 15.8 µM,≤ 90%
"O=C(Nc1ncc(Cl)s1)C(CC1CCOCC1)n1cc2cc(S(=O)(=O)C3CC3)ccc2n1 (stereo not drawn) [Compound 51, N-(5-chlorothiazol-2-yl)-2-(5-(cyclopropylsulfonyl)-2H-indazol-2-yl)-3-(tetrahydro-2H-pyran-4-yl)propanamide]",0.398 to 1.26 µM,≥ 111%
"CC(C)(C)S(=O)(=O)c1cnn([C@H](CC2CCOCC2)C(=O)Nc2ncc(F)s2)c1 [Compound 52, (R)-2-(4-(tert-butylsulfonyl)-1H-pyrazol-1-yl)-N-(5-fluorothiazol-2-yl)-3-(tetrahydro-2H-pyran-4-yl)propanamide]",≥ 15.8 µM,90 to 100%
"CC(C)(C)S(=O)(=O)c1cnn([C@@H](CC2CCOCC2)C(=O)Nc2ncc(F)s2)c1 [Compound 53, (S)-2-(4-(tert-butylsulfonyl)-1H-pyrazol-1-yl)-N-(5-fluorothiazol-2-yl)-3-(tetrahydro-2H-pyran-4-yl)propanamide]",≥ 15.8 µM,≤ 90%
"O=C1CC[C@H](C[C@@H](C(=O)Nc2ncc(F)s2)n2cc(S(=O)(=O)C3CC3)cn2)C1 [Compound 54, (S)-2-(4-(cyclopropylsulfonyl)-1H-pyrazol-1-yl)-N-(5-fluorothiazol-2-yl)-3-((R)-3-oxocyclopentyl)propanamide]",3.98 to 12.6 µM,≤ 90%
"O=C1CC[C@@H](C[C@@H](C(=O)Nc2ncc(F)s2)n2cc(S(=O)(=O)C3CC3)cn2)C1 [Compound 55, (S)-2-(4-(cyclopropylsulfonyl)-1H-pyrazol-1-yl)-N-(5-fluorothiazol-2-yl)-3-((S)-3-oxocyclopentyl)propanamide]",3.98 to 12.6 µM,≤ 90%
"O=C1CC[C@H](C[C@H](C(=O)Nc2ncc(F)s2)n2cc(S(=O)(=O)C3CC3)cn2)C1 [Compound 56, (R)-2-(4-(cyclopropylsulfonyl)-1H-pyrazol-1-yl)-N-(5-fluorothiazol-2-yl)-3-((R)-3-oxocyclopentyl)propanamide]",≥ 15.8 µM,≤ 90%
NC(=O)c1cnc(NC(=O)C(CC2CCCC2)n2cc(S(=O)(=O)C3CC3)cn2)s1 (stereo not drawn) [Compound 57],3.98 to 12.6 µM,101 to 105%
"O=C(Nc1ncc(Cl)s1)[C@@H](CC1CCOCC1)n1cc(S(=O)(=O)C2CCCC2)cn1 [Compound 58, (R)-N-(5-chlorothiazol-2-yl)-2-(4-(cyclopentylsulfonyl)-1H-pyrazol-1-yl)-3-(tetrahydro-2H-pyran-4-yl)propanamide]",≥ 15.8 µM,101 to 105%
"O=C(Nc1ncc(Cl)s1)C(CC1CCOCC1)n1ncc2c(S(=O)(=O)C3CC3)cccc21 (stereo not drawn) [Compound 59, N-(5-chlorothiazol-2-yl)-2-(4-(cyclopropylsulfonyl)-1H-indazol-1-yl)-3-(tetrahydro-2H-pyran-4-yl)propanamide]",≤ 0.316 µM,106 to 110%
"O=C(Nc1ncc(Cl)s1)C(CC1CCOCC1)n1ncc2ccc(S(=O)(=O)C3CC3)cc21 (stereo not drawn) [Compound 60, N-(5-chlorothiazol-2-yl)-2-(6-(cyclopropylsulfonyl)-1H-indazol-1-yl)-3-(tetrahydro-2H-pyran-4-yl)propanamide]",≥ 15.8 µM,≤ 90%
"O=C(Nc1cnccn1)C(CC1CCCC1)n1ncc2c(S(=O)(=O)C3CC3)cccc21 (stereo not drawn) [Compound 61, 3-cyclopentyl-2-(4-(cyclopropylsulfonyl)-1H-indazol-1-yl)-N-(pyrazin-2-yl)propanamide]",0.398 to 1.26 µM,90 to 100%
"O=C(Nc1ncc(F)s1)C(CC1CCCC1)n1ncc2c(S(=O)(=O)C3CC3)cccc21 (stereo not drawn) [Compound 62, 3-cyclopentyl-2-(4-(cyclopropylsulfonyl)-1H-indazol-1-yl)-N-(5-fluorothiazol-2-yl)propanamide]",0.398 to 1.26 µM,90 to 100%
"O=C(Nc1ncc(Cl)s1)[C@@H](CC1CCOCC1)n1ncc2c(S(=O)(=O)C3CC3)cccc21 [Compound 63, (R)-N-(5-chlorothiazol-2-yl)-2-(4-(cyclopropylsulfonyl)-1H-indazol-1-yl)-3-(tetrahydro-2H-pyran-4-yl)propanamide]",3.98 to 12.6 µM,≥ 111%
"O=C(Nc1ncc(Cl)s1)[C@H](CC1CCOCC1)n1ncc2c(S(=O)(=O)C3CC3)cccc21 [Compound 64, (S)-N-(5-chlorothiazol-2-yl)-2-(4-(cyclopropylsulfonyl)-1H-indazol-1-yl)-3-(tetrahydro-2H-pyran-4-yl)propanamide]",≤ 0.316 µM,≥ 111%
"O=C(Nc1cnccn1)C(CC1CCOCC1)n1ncc2c(S(=O)(=O)C3CC3)cccc21 (stereo not drawn) [Compound 65, 2-(4-(cyclopropylsulfonyl)-1H-indazol-1-yl)-N-(pyrazin-2-yl)-3-(tetrahydro-2H-pyran-4-yl)propanamide]",0.398 to 1.26 µM,90 to 100%
"O=C(Nc1ncc(F)s1)C(CC1CCOCC1)n1ncc2c(S(=O)(=O)C3CC3)cccc21 (stereo not drawn) [Compound 66, 2-(4-(cyclopropylsulfonyl)-1H-indazol-1-yl)-N-(5-fluorothiazol-2-yl)-3-(tetrahydro-2H-pyran-4-yl)propanamide]",≤ 0.316 µM,101 to 105%
"O=C(Nc1ncc(Cl)s1)C(CC1CCOCC1)n1ncc2c(S(=O)(=O)C3CC3)cc(F)cc21 (stereo not drawn) [Compound 67, N-(5-chlorothiazol-2-yl)-2-(4-(cyclopropylsulfonyl)-6-fluoro-1H-indazol-1-yl)-3-(tetrahydro-2H-pyran-4-yl)propanamide]",≤ 0.316 µM,106 to 110%
"O=C(Nc1ncc(F)s1)[C@@H](CC1CCOCC1)n1ncc2c(S(=O)(=O)C3CC3)cccc21 [Compound 68, (R)-2-(4-(cyclopropylsulfonyl)-1H-indazol-1-yl)-N-(5-fluorothiazol-2-yl)-3-(tetrahydro-2H-pyran-4-yl)propanamide]",3.98 to 12.6 µM,101 to 105%
"O=C(Nc1ncc(F)s1)[C@H](CC1CCOCC1)n1ncc2c(S(=O)(=O)C3CC3)cccc21 [Compound 69, (S)-2-(4-(cyclopropylsulfonyl)-1H-indazol-1-yl)-N-(5-fluorothiazol-2-yl)-3-(tetrahydro-2H-pyran-4-yl)propanamide]",≤ 0.316 µM,106 to 110%
"O=C(Nc1ncc(Cl)s1)C(CC1CCOCC1)n1cc2c(S(=O)(=O)C3CC3)cccc2n1 (stereo not drawn) [Compound 70, N-(5-chlorothiazol-2-yl)-2-(4-(cyclopropylsulfonyl)-2H-indazol-2-yl)-3-(tetrahydro-2H-pyran-4-yl)propanamide]",1.58 to 3.16 µM,101 to 105%
"O=C1CC[C@H](CC(C(=O)Nc2cnccn2)n2ncc3c(S(=O)(=O)C4CC4)cccc32)C1 (stereo partly drawn) [Compound 71, 2-(4-(cyclopropylsulfonyl)-1H-indazol-1-yl)-3-((R)-3-oxocyclopentyl)-N-(pyrazin-2-yl)propanamide]",1.58 to 3.16 µM,≤ 90%
